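48-hour exposure; five concentrations; linearly interpolated endpoints. GI50 is the concentration that inhibits growth by half.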 Activity calls are given as the source filed them. Rule as the data show it: active = GI50 up to about 1.1 µM and inactive = higher.
Experiments:
Assay in all cases: NCI tumour cell line growth inhibition, 48 h
OVCAR-5 = tested on: OVCAR-5
NCI/ADR-RES = tested on: NCI/ADR-RES
OVCAR-8 = tested on: OVCAR-8
SK-MEL-5 = tested on: SK-MEL-5
T47D = tested on: T47D
UACC-257 = tested on: UACC-257
TK-10 = tested on: TK-10
MCF7 = tested on: MCF7
M14 = tested on: M14
A549 = tested on: A549
KM12 = tested on: KM12
COLO 205 = tested on: COLO 205
NCI-H23 = tested on: NCI-H23
LOX IMVI = tested on: LOX IMVI
OVCAR-4 = tested on: OVCAR-4
SNB-19 = tested on: SNB-19
HOP-92 = tested on: HOP-92
HCC 2998 = tested on: HCC 2998
BT-549 = tested on: BT-549

Measured: GI50

CC(C)OC(=S)Nc1ccc(Cl)c(/C=N/OC(C)(C)C)c1
inactive: OVCAR-5 16 µM | NCI/ADR-RES 11.9 µM | OVCAR-8 12.3 µM | SK-MEL-5 16.2 µM | T47D 15.7 µM | UACC-257 18.2 µM | TK-10 12.4 µM | MCF7 22.9 µM | M14 19.9 µM | A549 16.9 µM | KM12 12.5 µM | COLO 205 17.1 µM | NCI-H23 18.5 µM | LOX IMVI 17.1 µM | OVCAR-4 18.1 µM | SNB-19 20.7 µM | HOP-92 12.2 µM | HCC 2998 19.6 µM | BT-549 18.5 µM

OCCSCc1ccccc1
inactive: OVCAR-5 > 100 µM | NCI/ADR-RES > 100 µM | OVCAR-8 > 100 µM | SK-MEL-5 > 100 µM | T47D > 100 µM | UACC-257 > 100 µM | TK-10 > 100 µM | MCF7 > 100 µM | M14 > 100 µM | A549 > 100 µM | KM12 > 100 µM | COLO 205 > 100 µM | NCI-H23 > 100 µM | LOX IMVI > 100 µM | OVCAR-4 > 100 µM | SNB-19 > 100 µM | HOP-92 > 100 µM | HCC 2998 > 100 µM | BT-549 > 100 µM

OCCCCCNc1cc(O)nc(O)n1
inactive: OVCAR-5 > 100 µM | NCI/ADR-RES > 100 µM | OVCAR-8 > 100 µM | SK-MEL-5 > 100 µM | T47D > 100 µM | UACC-257 > 100 µM | TK-10 > 100 µM | MCF7 > 100 µM | M14 > 100 µM | A549 > 100 µM | KM12 > 100 µM | COLO 205 > 100 µM | NCI-H23 > 100 µM | LOX IMVI > 100 µM | OVCAR-4 > 100 µM | SNB-19 > 100 µM | HOP-92 > 100 µM | HCC 2998 > 100 µM | BT-549 > 100 µM

COc1cc(/C=C2/SC(c3ccccc3)N(c3cccc([N+](=O)[O-])c3)C2=O)cc(OC)c1OC (configuration not stated)
inactive: OVCAR-5 > 100 µM | NCI/ADR-RES > 100 µM | OVCAR-8 > 100 µM | SK-MEL-5 50.1 µM | T47D 97.5 µM | UACC-257 > 100 µM | TK-10 > 100 µM | MCF7 46.2 µM | M14 > 100 µM | A549 > 100 µM | KM12 95.1 µM | COLO 205 > 100 µM | NCI-H23 > 100 µM | LOX IMVI > 100 µM | OVCAR-4 > 100 µM | SNB-19 > 100 µM | HOP-92 > 100 µM | HCC 2998 > 100 µM | BT-549 > 100 µM

NNC(=O)Cc1cccnc1
inactive: OVCAR-5 > 100 µM | NCI/ADR-RES > 100 µM | OVCAR-8 > 100 µM | SK-MEL-5 > 100 µM | T47D > 100 µM | UACC-257 > 100 µM | TK-10 > 100 µM | MCF7 > 100 µM | M14 > 100 µM | A549 > 100 µM | KM12 > 100 µM | COLO 205 > 100 µM | NCI-H23 > 100 µM | LOX IMVI > 100 µM | OVCAR-4 > 100 µM | SNB-19 > 100 µM | HOP-92 > 100 µM | HCC 2998 > 100 µM | BT-549 > 100 µM

NNC(=O)c1ccccc1NC(=O)/C(=C/c1ccccc1O)NC(=O)c1ccccc1
inactive: OVCAR-5 > 100 µM | NCI/ADR-RES 15.6 µM | OVCAR-8 18.1 µM | SK-MEL-5 72.3 µM | T47D 11.5 µM | UACC-257 > 100 µM | TK-10 > 100 µM | MCF7 5.07 µM | M14 55.6 µM | A549 > 100 µM | KM12 5.62 µM | COLO 205 > 100 µM | NCI-H23 38.4 µM | LOX IMVI 47.1 µM | OVCAR-4 27.3 µM | SNB-19 24.1 µM | HOP-92 38.9 µM | HCC 2998 10.9 µM | BT-549 31.8 µM

COc1cc2nc(-c3ccccc3F)nc(O)c2cc1OC
inactive: OVCAR-5 > 100 µM | NCI/ADR-RES > 100 µM | OVCAR-8 > 100 µM | SK-MEL-5 > 100 µM | T47D > 100 µM | UACC-257 > 100 µM | TK-10 > 100 µM | MCF7 86.9 µM | M14 > 100 µM | A549 > 100 µM | KM12 > 100 µM | COLO 205 > 100 µM | NCI-H23 > 100 µM | LOX IMVI > 100 µM | OVCAR-4 > 100 µM | SNB-19 63.8 µM | HOP-92 > 100 µM | HCC 2998 > 100 µM | BT-549 > 100 µM

CCOP(=O)(OCC)/C(C#N)=C/c1cccn1N(C)C
inactive: OVCAR-5 > 100 µM | NCI/ADR-RES > 100 µM | OVCAR-8 > 100 µM | SK-MEL-5 51.6 µM | T47D 47.6 µM | UACC-257 > 100 µM | TK-10 > 100 µM | MCF7 > 100 µM | M14 > 100 µM | A549 > 100 µM | KM12 > 100 µM | COLO 205 > 100 µM | NCI-H23 > 100 µM | LOX IMVI > 100 µM | OVCAR-4 > 100 µM | SNB-19 > 100 µM | HOP-92 > 100 µM | HCC 2998 > 100 µM | BT-549 62.2 µM

From ChEMBL document CHEMBL1201862, “PubChem BioAssay data set” (2004)
